We go through 27 molecules from patent US20220411367A1, “ARYLMETHYLENE HETEROCYCLIC COMPOUNDS AS KV1.3 POTASSIUM SHAKER CHANNEL BLOCKERS” (D. E. Shaw Research, LLC, priority 2019, published 2022).

One experiment concerns the target T1, Kv1.3 potassium channel (Homo sapiens, UniProt P22001).
T1 construct: expressed in transfected cells
Nature of the experiment: Kv1.3 potassium channel blocker activity, automated whole-cell patch clamp (Patchliner). It counts as cell-based. To be noted: CHO-K1 cells stably expressing Kv1.3; whole cell current inhibition; read-out: Kvl.3 IC50. The protocol: This assay is used to evaluate the disclosed compounds' activities as Kv1.3 potassium channel blockers.
CHO-K1 cells stably expressing Kv1.3 were grown in DMEM containing 10% heat-inactivated FBS, 1 mM Sodium Pyruvate, 2 mM L-Glutamine and G418 (500 μg/ml).
(§1) All compounds were dissolved in DMSO at 30 mM.
The currents were evoked by applying 100 ms depolarizing pulses from −90 mV (holding potential) to +40 mV were applied with 0.1 Hz frequency. […] 10 second breaks were used between pulse trains (see Table A below).
Data were sampled at 10 kHz without filtering. Passive leak currents were subtracted online using a P/4 procedure (HEKA Elektronik Dr. Schulze GmbH). […] Total compound incubation time before the next pulse train was not longer than 10 seconds. Peak current inhibition was observed during compound equilibration.
In general terms: In patch-clamp work, channel activity is measured electrically.

In another experiment the target is T2, hERG channel (Homo sapiens, UniProt Q12809).
T2 construct: expressed in transfected cells
T2 sequence (Q12809 whole entry): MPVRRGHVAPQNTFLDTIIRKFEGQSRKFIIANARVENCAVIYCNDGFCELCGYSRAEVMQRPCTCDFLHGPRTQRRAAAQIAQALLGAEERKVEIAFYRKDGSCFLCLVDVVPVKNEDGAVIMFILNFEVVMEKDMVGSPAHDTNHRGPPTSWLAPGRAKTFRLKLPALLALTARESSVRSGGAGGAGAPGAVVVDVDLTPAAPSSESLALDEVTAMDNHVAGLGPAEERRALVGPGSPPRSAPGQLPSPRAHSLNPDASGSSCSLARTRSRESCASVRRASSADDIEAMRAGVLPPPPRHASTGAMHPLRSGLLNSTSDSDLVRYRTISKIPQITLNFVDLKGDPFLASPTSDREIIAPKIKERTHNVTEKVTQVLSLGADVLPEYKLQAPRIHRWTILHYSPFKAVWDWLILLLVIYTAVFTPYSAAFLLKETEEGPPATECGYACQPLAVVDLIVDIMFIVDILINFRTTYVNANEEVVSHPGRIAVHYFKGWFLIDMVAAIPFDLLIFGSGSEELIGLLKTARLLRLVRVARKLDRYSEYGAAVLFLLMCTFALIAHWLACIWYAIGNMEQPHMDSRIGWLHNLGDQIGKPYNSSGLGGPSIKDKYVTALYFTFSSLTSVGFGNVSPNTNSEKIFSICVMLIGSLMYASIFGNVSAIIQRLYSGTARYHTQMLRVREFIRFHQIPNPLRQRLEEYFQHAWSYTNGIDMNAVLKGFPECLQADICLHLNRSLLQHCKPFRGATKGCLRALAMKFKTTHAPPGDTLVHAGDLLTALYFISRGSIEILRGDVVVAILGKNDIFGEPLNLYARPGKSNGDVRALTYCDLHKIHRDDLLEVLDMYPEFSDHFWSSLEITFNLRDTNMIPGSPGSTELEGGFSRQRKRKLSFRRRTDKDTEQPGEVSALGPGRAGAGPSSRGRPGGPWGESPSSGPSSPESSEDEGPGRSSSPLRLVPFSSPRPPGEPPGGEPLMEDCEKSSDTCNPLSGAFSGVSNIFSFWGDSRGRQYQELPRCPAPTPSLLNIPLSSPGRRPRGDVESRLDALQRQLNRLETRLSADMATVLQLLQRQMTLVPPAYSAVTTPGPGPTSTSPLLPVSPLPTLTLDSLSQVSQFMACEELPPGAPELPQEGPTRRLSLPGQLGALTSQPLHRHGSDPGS
Nature of the experiment: hERG electrophysiology, automated whole-cell patch clamp (Patchliner). Format: cell-based. The protocol:
as §1
The pulse frequency was 0.3 Hz.
Data were sampled at 10 kHz without filtering.

Setting [1] is: CHO-K1 cells stably expressing hERG, whole cell current inhibition, read-out: hERG IC50.

Read-outs that look alike come from different tables or passages of the source.

Broadly, the IC50 is the midpoint of a concentration-inhibition curve.

T1 sequence (P22001 whole entry): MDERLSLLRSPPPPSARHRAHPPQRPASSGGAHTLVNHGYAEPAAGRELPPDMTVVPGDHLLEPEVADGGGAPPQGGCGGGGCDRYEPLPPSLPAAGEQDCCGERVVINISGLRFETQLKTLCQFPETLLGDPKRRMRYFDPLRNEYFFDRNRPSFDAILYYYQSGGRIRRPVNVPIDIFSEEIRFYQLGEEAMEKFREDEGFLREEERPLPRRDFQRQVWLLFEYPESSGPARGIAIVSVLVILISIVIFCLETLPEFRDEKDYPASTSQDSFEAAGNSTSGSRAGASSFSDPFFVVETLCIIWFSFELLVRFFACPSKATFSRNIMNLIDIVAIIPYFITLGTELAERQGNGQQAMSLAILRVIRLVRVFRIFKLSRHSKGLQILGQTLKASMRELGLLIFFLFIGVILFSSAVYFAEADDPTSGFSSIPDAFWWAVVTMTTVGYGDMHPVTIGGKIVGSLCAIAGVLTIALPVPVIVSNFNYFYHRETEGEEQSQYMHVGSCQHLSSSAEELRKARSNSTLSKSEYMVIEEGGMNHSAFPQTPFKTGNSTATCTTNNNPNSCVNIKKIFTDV

Turning to `CN(C)C(=O)C1CCN(Cc2cc(Cl)c(Cl)cc2O)CC1` [Compound 66, 1-(4,5-dichloro-2-hydroxybenzyl)-N,N-dimethylpiperidine-4-carboxamide], the IC50 on Kv1.3 potassium channel was < 10 µM; on hERG channel (setting [1]) it was < 30 µM.

As to `Oc1cc(Cl)c(Cl)cc1CN1CCC(c2ccn[nH]2)CC1` [Compound 30, 2-((4-(1H-pyrazol-5-yl)piperidin-1-yl)methyl)-4,5-dichlorophenol], the half-inhibitory concentration (IC50) was < 10 µM at Kv1.3 potassium channel and < 30 µM on hERG channel (setting [1]).

Take `Oc1cc(Cl)c(Cl)cc1CN1CCC(C2COC2)CC1` [Compound 42, 4,5-dichloro-2-[[4-(oxetan-3-yl)piperidin-1-yl]methyl]phenol]: the IC50 on Kv1.3 potassium channel was < 10 µM; on hERG channel (setting [1]), < 30 µM.

`OCCC1CCN(Cc2cc(Cl)c(Cl)cc2O)CC1` [Compound 39, 4,5-dichloro-2-((4-(2-hydroxyethyl)piperidin-1-yl)methyl)phenol]: the IC50 on Kv1.3 potassium channel is < 10 µM; at hERG channel (setting [1]), < 30 µM.

As for `NCC1CCN(Cc2cc(Cl)c(Cl)cc2O)CC1` [Compound 61, 2-((4-(aminomethyl)piperidin-1-yl)methyl)-4,5-dichlorophenol], the IC50 on Kv1.3 potassium channel was < 1 µM; at hERG channel (setting [1]) it was < 30 µM.

Regarding `Oc1cc(Cl)c(Cl)cc1CN1CCC2(CC1)COC2` [Compound 51, 4,5-dichloro-2-[2-oxa-7-azaspiro [3.5]nonan-7-ylmethyl] phenol], the results for the IC50 at Kv1.3 potassium channel and on hERG channel (setting [1]) were < 10 µM and < 30 µM, respectively.

With `OCC1CN(Cc2cc(Cl)c(Cl)cc2O)C1` [Compound 32, 4,5-dichloro-2-[[3-(hydroxymethyl)azetidin-1-yl]methyl]phenol], the IC50 on Kv1.3 potassium channel is < 10 µM; at hERG channel (setting [1]) it was < 30 µM.

For the molecule `CC(C)(O)C1CCN(Cc2cc(Cl)c(Cl)cc2O)CC1` [Compound 50, 4,5-dichloro-2-[[4-(2-hydroxypropan-2-yl)piperidin-1-yl]methyl]phenol], the IC50 at Kv1.3 potassium channel is < 10 µM; at hERG channel (setting [1]), < 30 µM.

Regarding `OCC1CCN(Cc2cc(Cl)c(Cl)cc2O)CC1` [Compound 65, 4,5-dichloro-2-((4-(hydroxymethyl)piperidin-1-yl)methyl)phenol], the values for the concentration for half-maximal inhibition (IC50) on Kv1.3 potassium channel and at hERG channel (setting [1]) were < 10 µM and < 30 µM, respectively.

For the molecule `COCC1CCN(Cc2cc(Cl)c(Cl)cc2O)CC1` [Compound 56, 4,5-dichloro-2-[[4-(methoxymethyl)piperidin-1-yl]methyl]phenol], the IC50 is < 10 µM at Kv1.3 potassium channel and < 30 µM on hERG channel (setting [1]).

On to `Oc1cc(Cl)c(Cl)cc1CN1CCC(O)CC1` [Compound 55, 1-[(4,5-dichloro-2-hydroxyphenyl)methyl] piperidin-4-ol], for which the IC50 is < 10 µM at Kv1.3 potassium channel and < 30 µM at hERG channel (setting [1]).

With `CC(=O)NC1(CO)CCN(Cc2cc(Cl)c(Cl)cc2O)CC1` [Compound 12, N-[1-[(4,5-dichloro-2-hydroxyphenyl)methyl]-4-(hydroxymethyl)piperidin-4-yl]acetamide], the IC50 is < 1 µM at Kv1.3 potassium channel and > 30 µM on hERG channel (setting [1]).

Take `NC1(CO)CCN(Cc2cc(Cl)c(Cl)cc2O)CC1` [Compound 14, 2-[[4-amino-4-(hydroxymethyl)piperidin-1-yl]methyl]-4,5-dichlorophenol]: the half-inhibitory concentration (IC50) is < 1 µM at Kv1.3 potassium channel and < 30 µM at hERG channel (setting [1]).

On to `CC1CCN(Cc2cc(Cl)c(Cl)cc2O)CC1` [Compound 64, 4,5-dichloro-2-((4-methylpiperidin-1-yl)methyl)phenol], for which the half-inhibitory concentration (IC50) on Kv1.3 potassium channel is < 10 µM; at hERG channel (setting [1]), < 30 µM.

Take `Oc1cc(Cl)c(Cl)cc1CN1CCc2[nH]ncc2C1` [Compound 25, 4,5-dichloro-2-((6,7-dihydro-1H-pyrazolo[4,3-c]pyridin-5(4H)-yl)methyl)phenol]: the IC50 on Kv1.3 potassium channel is < 10 µM; at hERG channel (setting [1]), < 30 µM.

Regarding `Oc1cc(Cl)c(Cl)cc1CN1CCC2(CC1)OCCC2O` (stereo not drawn) [Compound 26, 8-(4,5-dichloro-2-hydroxybenzyl)-1-oxa-8-azaspiro[4.5]decan-4-ol], the concentration for half-maximal inhibition (IC50) at Kv1.3 potassium channel was < 1 µM; on hERG channel (setting [1]) it was < 30 µM.

In the case of `OCC1CCN(Cc2cc(Br)c(Br)cc2O)CC1` [Compound 60, 4,5-dibromo-2-((4-(hydroxymethyl)piperidin-1-yl)methyl)phenol], the IC50 on Kv1.3 potassium channel is < 1 µM; at hERG channel (setting [1]) it was < 30 µM.

On to `OCC1(c2ccccc2)CCN(Cc2cc(Cl)c(Cl)cc2O)CC1` [Compound 22, 4,5-dichloro-2-[[4-(hydroxymethyl)-4-phenylpiperidin-1-yl]methyl]phenol], for which the values for the IC50 on Kv1.3 potassium channel and on hERG channel (setting [1]) were < 1 µM and < 30 µM, respectively.

`Oc1cc(Cl)c(Cl)cc1CN1CCC2(CC1)COCC2O` (stereo not drawn) [Compound 40]: the IC50 was < 1 µM on Kv1.3 potassium channel and < 30 µM on hERG channel.

Turning to `CCC(c1cc(Cl)c(Cl)cc1O)N1CCC(CO)CC1` (stereo not drawn) [Compound 18, 4,5-dichloro-2-[1-[4-(hydroxymethyl)piperidin-1-yl]propyl]phenol], the IC50 on Kv1.3 potassium channel is < 10 µM; on hERG channel (setting [1]) it was < 30 µM.

`NCC1(O)CCN(Cc2cc(Cl)c(Cl)cc2O)CC1` [Compound 9, 4-(aminomethyl)-1-[(4,5-dichloro-2-hydroxyphenyl)methyl]piperidin-4-ol trifluoroacetic acid]: the results for the IC50 at Kv1.3 potassium channel and on hERG channel (setting [1]) were < 1 µM and < 30 µM, respectively.

As to `OCC1CCCN(Cc2cc(Cl)c(Cl)cc2O)C1` (stereo not drawn) [Compound 45, 4,5-dichloro-2-[[3-(hydroxymethyl)piperidin-1-yl]methyl]phenol], the IC50 on Kv1.3 potassium channel was < 10 µM; on hERG channel (setting [1]) it was < 30 µM.

For the molecule `C[C@H]1C[C@@H](CO)CCN1Cc1cc(Cl)c(Cl)cc1O` (relative stereo) [Compound 29, 4,5-dichloro-2-(((2S,4S)-rel-4-(hydroxymethyl)-2-methylpiperidin-1-yl)methyl)phenol], the half-maximal inhibitory concentration (IC50) at Kv1.3 potassium channel is < 1 µM; at hERG channel (setting [1]), < 30 µM.

Take `O=C(N1CCOCC1)N1CCN(Cc2cc(Cl)c(Cl)cc2O)CC1` [Compound 58, (4-(4,5-dichloro-2-hydroxybenzyl)piperazin-1-yl)(morpholino) methanone]: the IC50 at Kv1.3 potassium channel is < 10 µM; at hERG channel (setting [1]) it was < 30 µM.

Regarding `Oc1cc(Cl)c(Cl)cc1CN1CCC(C2CCOCC2)CC1` [Compound 20, 4,5-dichloro-2-[[4-(oxan-4-yl)piperidin-1-yl]methyl]phenol], the IC50 is < 1 µM at Kv1.3 potassium channel and < 30 µM at hERG channel (setting [1]).

For `NC(=O)C1CCN(Cc2cc(Cl)c(Cl)cc2O)CC1` [Compound 62, l-(4,5-dichloro-2-hydroxybenzyl) piperidine-4-carboxamide], the IC50 on Kv1.3 potassium channel is < 10 µM; on hERG channel (setting [1]), < 30 µM.

`CC1(CO)CCN(Cc2cc(Cl)c(Cl)cc2O)CC1` [Compound 53, 4,5-dichloro-2-[[4-(hydroxymethyl)-4-methylpiperidin-1-yl]methyl] phenol]: the results for the half-maximal inhibitory concentration (IC50) on Kv1.3 potassium channel and on hERG channel (setting [1]) were < 10 µM and < 30 µM, respectively.
